Measured values taken from ChEMBL document CHEMBL4000252, “Discovery of N-(2-aminoethyl)-N-benzyloxyphenyl benzamides: New potent Trypanosoma brucei inhibitors” (Bioorg Med Chem, 2017).
Calls of active or inactive are those of the source. The calls are words filed in the database; no cut-off is given here.

Legend:
[1] = tested on: Trypanosoma brucei brucei; assay: Antiparasitic activity against Trypanosoma brucei brucei BF427 assessed as growth inhibition after 48 hrs by Alamar blue assay; assay type: functional; conditions: BF427, 48 h
[2] = Cytotoxicity against human CRL8155 cells assessed as growth inhibition after 48 hrs by Alamar blue assay; assay type: cell-based; conditions: crl8155, 48 h
HepG2 = assay: Cytotoxicity against human HepG2 cells assessed as growth inhibition after 48 hrs by Alamar blue assay; assay type: cell-based; conditions: hepg2, 48 h
L6 = assay: Cytotoxicity against rat L6 cells assessed as growth inhibition after 48 hrs by Alamar blue assay; assay type: cell-based; conditions: l6, 48 h
Cytochrome P450 3A4 = Cytochrome P450 3A4 (Homo sapiens, UniProt P08684); assay: Inhibition of human CYP3A4; assay type: ADME
Sequence of Cytochrome P450 3A4 (P08684 whole entry): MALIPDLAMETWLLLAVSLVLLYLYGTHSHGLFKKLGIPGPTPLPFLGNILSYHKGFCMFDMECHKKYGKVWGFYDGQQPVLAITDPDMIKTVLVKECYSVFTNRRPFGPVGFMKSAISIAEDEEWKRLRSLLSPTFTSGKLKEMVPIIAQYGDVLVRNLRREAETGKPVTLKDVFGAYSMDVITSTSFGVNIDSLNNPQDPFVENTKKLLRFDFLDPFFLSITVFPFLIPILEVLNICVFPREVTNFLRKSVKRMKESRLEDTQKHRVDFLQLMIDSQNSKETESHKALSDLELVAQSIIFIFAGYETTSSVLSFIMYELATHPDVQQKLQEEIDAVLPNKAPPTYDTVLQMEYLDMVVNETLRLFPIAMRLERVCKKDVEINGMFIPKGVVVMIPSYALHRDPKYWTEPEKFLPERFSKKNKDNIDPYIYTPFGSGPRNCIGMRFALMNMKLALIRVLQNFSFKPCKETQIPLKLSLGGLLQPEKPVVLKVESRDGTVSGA

Liver [3] = assay: Half life in mouse liver microsomes at 1.5 uM by LC-MS analysis; assay type: ADME, microsome
Liver [4] = assay: Half life in human liver microsomes at 1.5 uM by LC-MS analysis; assay type: ADME, microsome
[5] = Ratio of drug level in brain to plasma in mouse at 5 mg/kg, ip after 1 hr by LC-MS analysis; assay type: ADME, organism-based
[6] = Cmax in mouse at 50 mg/kg, po by LC-MS analysis; assay type: ADME, organism-based; parameters: dose 50 mg/kg, route oral; conditions: in vivo
[7] = AUC (0 to 8 hrs) in mouse at 50 mg/kg, po by LC-MS analysis; assay type: ADME, organism-based; parameters: dose 50 mg/kg, time < 8 hr, route oral; conditions: in vivo
[8] = tested on: Trypanosoma brucei rhodesiense; assay: Antiparasitic activity against Trypanosoma brucei rhodesiense STIB900 infected in Swiss-Webster mouse assessed as cure rate at 50 mg/kg, bid administered via oral gavage from day 2 to 5 post infection measured after 60 days by microscopic method relative to control; assay type: functional
[9] = tested on: Trypanosoma brucei brucei; assay: Antiparasitic activity against Trypanosoma brucei brucei TREU667 infected in mouse assessed as decrease in parasitemia at 50 mg/kg, bid administered via oral gavage on day 21 to 34 post infection measured on day 34 by microscopic method; assay type: functional, organism-based
[10] = tested on: Trypanosoma brucei brucei; assay: Antiparasitic activity against Trypanosoma brucei brucei TREU667 infected in mouse assessed as decrease in parasitemia at 50 mg/kg, bid administered via oral gavage on day 21 to 34 post infection measured on day 41 to 42 by microscopic method; assay type: functional, organism-based
[11] = tested on: Trypanosoma brucei brucei; assay: Antiparasitic activity against Trypanosoma brucei brucei TREU667 infected in mouse assessed as decrease in parasitemia at 50 mg/kg, bid administered via oral gavage on day 21 to 34 post infection measured on day 35 by microscopic method; assay type: functional, organism-based
[12] = tested on: Trypanosoma brucei brucei; assay: Antiparasitic activity against Trypanosoma brucei brucei TREU667 infected in mouse assessed as decrease in parasitemia at 50 mg/kg, bid administered via oral gavage on day 21 to 34 post infection measured on day 36 by microscopic method; assay type: functional, organism-based
[13] = tested on: Trypanosoma brucei brucei; assay: Antiparasitic activity against Trypanosoma brucei brucei TREU667 infected in mouse assessed as decrease in parasitemia at 50 mg/kg, bid administered via oral gavage on day 21 to 34 post infection measured on day 46 to 49 by microscopic method; assay type: functional, organism-based

Compound	EC50 [1]	CC50 [2]	also measured
NCCN(C(=O)c1cccnc1C(F)(F)F)c1ccc(OCc2ccc(Cl)cc2)cc1	0.003 µM	8.01 µM	CC50 (HepG2): 10.2 µM
Cc1ccccc1C(=O)N(CCN)c1ccc(Cl)cc1	0.52 µM		
NCCN(C(=O)c1ccccc1F)c1ccc(Cl)cc1	3.9 µM		CC50 (L6): 104 µM
COc1ccc(C(=O)N(CCN)c2ccc(Cl)cc2)c(OC)c1	4.82 µM		
Cc1cc(C)cc(COc2ccc(N(CCN)C(=O)c3cccnc3C(F)(F)F)cc2)c1	0.003 µM	4.74 µM	CC50 (HepG2): 6.46 µM
O=C(c1ccc(Cl)cc1Cl)N(CCN1CCOCC1)c1ccc(Cl)cc1	> 10 µM		
NCCN(C(=O)c1c(Cl)cc(Cl)cc1Cl)c1ccc(Cl)cc1	0.23 µM	8.5 µM	CC50 (HepG2): 21.5 µM
NCCN(C(=O)c1ccc(F)cc1F)c1ccc(Cl)cc1	1.24 µM		
NCCN(C(=O)c1cccc(F)c1)c1ccc(Cl)cc1	4.03 µM		
Cc1cc(C)cc(COc2ccc(N(CCN)C(=O)c3ccc(F)cc3C(F)(F)F)cc2)c1	0.005 µM	2.24 µM	CC50 (HepG2): 4.53 µM
NCCN(C(=O)c1cccnc1C(F)(F)F)c1ccc(Cl)cc1	0.59 µM		
NCCN(C(=O)c1c(Cl)cccc1Cl)c1ccc(Cl)cc1	0.78 µM	> 50 µM	CC50 (HepG2): > 50 µM
Cl.NCCN(C(=O)c1ccc(Cl)cc1Cl)c1ccc(F)cc1		30 µM	CC50 (HepG2): 40 µM; IC50 (Cytochrome P450 3A4): 0.074 µM; t1/2 (Liver [3]): > 1 h
NCCN(C(=O)c1ccc(F)cc1C(F)(F)F)c1ccc(Cl)cc1	0.18 µM	42.3 µM	CC50 (HepG2): 37.7 µM
NCCN(C(=O)c1ccccc1)c1ccc(Cl)cc1	13 µM		
O=C(c1ccc(Cl)cc1Cl)N(c1ccc(Cl)cc1)C1CCNC1 (stereo unspecified)	4.47 µM		

Compound	EC50 [1]	CC50 [2]	also measured
Cc1ccc(C(=O)N(CCN)c2ccc(Cl)cc2)c(C)c1	0.97 µM		
NCCN(C(=O)c1ccc(F)cc1)c1ccc(Cl)cc1	4.01 µM		
CC(C)c1ccc(COc2ccc(N(CCN)C(=O)c3ccc(F)cc3C(F)(F)F)cc2)cc1.Cl	0.002 µM	2.83 µM	CC50 (HepG2): 3.66 µM; t1/2 (Liver [4]): 0.867 h; BPR [5]: 0.22; Cmax [6]: 1.78 µM; AUC(0-t) at 8 h [7]: 11.1 µM·h; Activity [8]: 33%
NCCN(C(=O)c1cc(Cl)cc(Cl)c1)c1ccc(Cl)cc1	1.08 µM		
NCCN(C(=O)c1cc([N+](=O)[O-])ccc1Cl)c1ccc(Cl)cc1	1.2 µM		
NCCN(C(=O)c1ccccc1C(F)(F)F)c1ccc(Cl)cc1	0.33 µM		
CC(C)c1ccc(COc2ccc(N(CCN)C(=O)c3ccccc3[N+](=O)[O-])cc2)cc1	0.001 µM	3.03 µM	
O=C(c1ccc(Cl)cc1Cl)N(c1ccc(Cl)cc1)C1CCCNC1 (stereo unspecified)	> 10 µM		
CC(C)c1ccc(COc2ccc(N(CCN)C(=O)c3ccccc3Br)cc2)cc1	0.001 µM	1.91 µM	
Cc1ccc(C(=O)N(CCN)c2ccc(Cl)cc2)cc1	7 µM		
COc1ccccc1C(=O)N(CCN)c1ccc(Cl)cc1	2.51 µM		
NCCN(C(=O)c1ccc(Cl)c([N+](=O)[O-])c1)c1ccc(Cl)cc1	2.9 µM		
Cc1cc(C)cc(COc2ccc(N(CCN)C(=O)c3ccccc3C(F)(F)F)cc2)c1.Cl	0.01 µM	2.94 µM	CC50 (HepG2): 3.94 µM; t1/2 (Liver [4]): > 1 h; BPR [5]: 0.96; Cmax [6]: 1.01 µM; AUC(0-t) at 8 h [7]: 6.51 µM·h; Activity [8]: 33%
CC(C)c1ccc(COc2ccc(N(CCN)C(=O)c3ccccc3C(F)(F)F)cc2)cc1	0.003 µM	2.22 µM	CC50 (HepG2): 3.99 µM
NCCN(C(=O)c1c(F)c(F)c(F)c(F)c1F)c1ccc(Cl)cc1	0.54 µM		

The next lines start with results.

EC50 [1]	Compound	CC50 [2]	also measured
0.51 µM	NCCN(C(=O)c1ccc(Cl)cc1Cl)c1ccc(Cl)cc1Cl		
> 10 µM	O=C(c1ccc(Cl)cc1Cl)N(Cc1ncc[nH]1)c1ccc(Cl)cc1		
1.2 µM	NCCN(C(=O)c1cccc(Cl)c1)c1ccc(Cl)cc1		
0.043 µM	NCCN(C(=O)c1ccc(Cl)cc1Cl)c1ccc(OCc2cccc(Cl)c2)cc1	2.38 µM	CC50 (HepG2): 3.78 µM
> 10 µM	O=C(c1ccc(Cl)cc1Cl)N(c1ccc(Cl)cc1)c1cccnc1		
1.68 µM	NCCN(C(=O)c1ccc(Cl)cc1Cl)c1ccc(Cl)c(Cl)c1		
> 10 µM	O=C(c1ccc(Cl)cc1Cl)N(Cc1ccco1)c1ccc(Cl)cc1		
0.44 µM	NCCN(C(=O)c1ccccc1Cl)c1ccc(Cl)cc1	> 50 µM	CC50 (HepG2): > 50 µM
> 10 µM	O=C(c1ccc(Cl)cc1Cl)N(Cc1cccs1)c1ccc(Cl)cc1		
> 10 µM	CN(C)CCN(C(=O)c1ccc(Cl)cc1Cl)c1ccc(Cl)cc1		
4.52 µM	COc1cc(N(CCN)C(=O)c2ccc(Cl)cc2Cl)ccc1Cl		
0.31 µM	NCCN(C(=O)c1ccc(Cl)cc1Cl)c1ccc(Cl)cc1	12.5 µM	CC50 (HepG2): 14.2 µM; IC50 (Cytochrome P450 3A4): 0.07 µM
2.72 µM	NCCN(C(=O)c1ccc(Cl)cc1Cl)c1ccc(F)c(Cl)c1		
2.13 µM	NCCN(C(=O)c1ccc(Cl)cc1Cl)c1cccc(Oc2ccc(Cl)cc2)c1		
0.02 µM	Cc1cc(C)cc(COc2ccc(N(CCN)C(=O)c3ccc(Cl)cc3Cl)cc2)c1.Cl	2.45 µM	CC50 (HepG2): 4.1 µM; IC50 (Cytochrome P450 3A4): 0.003 µM; t1/2 (Liver [4]): > 1 h; BPR [5]: 0.18; Cmax [6]: 5.9 µM; AUC(0-t) at 8 h [7]: 33.9 µM·h; Activity [8]: 33%; Activity [9]: Active; Activity [10]: inactive
0.33 µM	NCCN(C(=O)c1ccc(Cl)cc1Cl)c1ccc(Br)cc1	11.5 µM	CC50 (HepG2): 11 µM
0.007 µM	Cl.NCCN(C(=O)c1ccc(F)cc1C(F)(F)F)c1ccc(OCc2ccc(Cl)cc2)cc1	3.67 µM	CC50 (HepG2): 7.53 µM; IC50 (Cytochrome P450 3A4): 0.01 µM; t1/2 (Liver [4]): > 1 h; t1/2 (Liver [3]): > 1 h; BPR [5]: 0.38; Cmax [6]: 4.39 µM; AUC(0-t) at 8 h [7]: 26 µM·h; Activity [8]: 67 - 80%; Activity [9]: Active; Activity [11]: Active; Activity [12]: Active; Activity [13]: inactive
> 6 µM	COc1ccc(N(CCN)C(=O)c2ccc(Cl)cc2Cl)cc1		CC50 (L6): 56.1 µM
1.05 µM	CC(N)CN(C(=O)c1ccc(Cl)cc1Cl)c1ccc(Cl)cc1 (stereo unspecified)		
> 10 µM	NCCN(C(=O)c1ccc(Cl)cc1Cl)c1ccc([N+](=O)[O-])cc1		
0.31 µM	NCCN(C(=O)c1cccc(Cl)c1Cl)c1ccc(Cl)cc1		
> 10 µM	O=C(c1ccc(Cl)cc1Cl)N(Cc1cnc[nH]1)c1ccc(Cl)cc1		

EC50 [1]	Compound	CC50 [2]	also measured
> 10 µM	N#CCN(C(=O)c1ccc(Cl)cc1Cl)c1ccc(Cl)cc1		
3.56 µM	CC(CN)N(C(=O)c1ccc(Cl)cc1Cl)c1ccc(Cl)cc1 (stereo unspecified)		
3.12 µM	NCCN(C(=O)c1ccc(Cl)cc1)c1ccc(Cl)cc1		
0.28 µM	NCCN(C(=O)c1ccc(Cl)cc1Cl)c1ccc(Oc2cccc(Cl)c2)cc1		
0.03 µM	NCCN(C(=O)c1cccnc1Cl)c1ccc(OCc2ccc(Cl)cc2)cc1	11.5 µM	CC50 (HepG2): 15.2 µM
> 10 µM	NCCN(C(=O)c1ccc(Cl)cc1Cl)c1ccc(N)cc1	11 µM	
0.6 µM	NCCN(C(=O)c1cc(Cl)ccc1Cl)c1ccc(Cl)cc1		
> 10 µM	O=C(c1ccc(Cl)cc1Cl)N(CCO)c1ccc(Cl)cc1		
3.05 µM	NCCN(C(=O)c1ccc(Cl)cc1Cl)c1cccc(Cl)c1		
2.9 µM	NCCCN(C(=O)c1ccc(Cl)cc1Cl)c1ccc(Cl)cc1		
0.005 µM	CC(C)(C)c1ccc(COc2ccc(N(CCN)C(=O)c3ccc(Cl)cc3Cl)cc2)cc1	2.12 µM	CC50 (HepG2): 3.83 µM
0.17 µM	NCCN(C(=O)c1ccc(Cl)cc1Cl)c1ccc(Oc2ccc(Cl)cc2)cc1		
> 10 µM	CC(=O)NCCN(C(=O)c1ccc(Cl)cc1Cl)c1ccc(Cl)cc1		
1.05 µM	NCCN(C(=O)c1ccc(Cl)cc1Cl)c1ccc(C(F)(F)F)cc1		CC50 (L6): 13.2 µM
1.52 µM	Cc1ccc(N(CCN)C(=O)c2ccc(Cl)cc2Cl)cc1	24.9 µM	
0.015 µM	CCc1ccc(COc2ccc(N(CCN)C(=O)c3ccc(Cl)cc3Cl)cc2)cc1	2.59 µM	CC50 (HepG2): 5.6 µM
> 10 µM	COc1ccc(C(=O)N(CCN)c2ccc(Cl)cc2)cc1		
1.65 µM	CNCCN(C(=O)c1ccc(Cl)cc1Cl)c1ccc(Cl)cc1		
3.89 µM	CC(C)c1ccc(N(CCN)C(=O)c2ccc(Cl)cc2Cl)cc1		
3.6 µM	NCCN(C(=O)c1ccc(Cl)cc1Cl)c1ccc(Oc2ccccc2Cl)cc1		
> 10 µM	NC(=O)CCN(C(=O)c1ccc(Cl)cc1Cl)c1ccc(Cl)cc1		
1.83 µM	NCCN(C(=O)c1ccc(Cl)cc1Cl)c1ccc(-c2ccccc2)cc1		
